*1 amine or outer side, *2 acyl side, *3 side chain or, on linkers, in order; H or OH if unused. Where a SMILES comes first, the peptide text is derived from it. Bridges are numbered along the chain shown (N, C = ends). [ ]: non-standard residue; d: D form. The star is where a group is joined. X53 = CN1[C@@H]2CC[C@H]1CN(c1ccc(-c3ccc(Cl)cc3C[C@@H](C(=O)[*:2])N(C)[*:1])cc1)C2; X73 = CN([C@@H](Cc1cc(Cl)ccc1-c1ccc(N2CCN(Cc3cnn(C)c3)CC2)cc1)C(=O)[*:2])[*:1]; X106 = CN([C@@H](Cc1cc(Cl)ccc1-c1ccc(N2CCN(Cc3ccccn3)CC2)cc1)C(=O)[*:2])[*:1]; X38 = CN([C@@H](Cc1cc(Cl)ccc1-c1ccc(N2C[C@H]3COC[C@H]3C2)cc1)C(=O)[*:2])[*:1]; NMePhe(2-(4-MorPh),5-Cl) = CN[C@@H](Cc1cc(Cl)ccc1-c1ccc(N2CCOCC2)cc1)C(=O)O; X21 = CN([C@@H](Cc1cc(Cl)ccc1-c1ccc(N2CCN3CCOC[C@H]3C2)cc1)C(=O)[*:2])[*:1]; X85 = CN([C@@H](Cc1cc(Cl)ccc1-c1ccc([C@]23CCOC[C@H]2C3)nc1)C(=O)[*:2])[*:1]; X45 = CN1CCC(F)(c2ccc(-c3ccc(Cl)cc3C[C@@H](C(=O)[*:2])N(C)[*:1])cc2)CC1; X103 = CN1CCC(Oc2ccc(-c3ccc(Cl)cc3C[C@@H](C(=O)[*:2])N(C)[*:1])cc2)CC1; X36 = Cc1cc(-c2ccc(Cl)cc2C[C@@H](C(=O)[*:2])N(C)[*:1])ccc1N1CCN(C)CC1; X40 = CN1CCN(Cc2ccc(-c3ccc(Cl)cc3C[C@@H](C(=O)[*:2])N(C)[*:1])cc2)CC1; X108 = CN([C@@H](Cc1cc(Cl)ccc1-c1ccc(CN2CCOCC2)cc1)C(=O)[*:2])[*:1]; X8 = CN1CCN(C2CC=C(c3ccc(Cl)cc3C[C@@H](C(=O)[*:2])N(C)[*:1])CC2)CC1; X81 = COc1cc(N2CCOCC2)ccc1-c1ccc(Cl)cc1C[C@@H](C(=O)[*:2])N(C)[*:1]; X91 = COc1cc(-c2ccc(Cl)cc2C[C@@H](C(=O)[*:2])N(C)[*:1])ccc1N1CCOCC1; X6 = CN([C@@H](Cc1cc(Cl)ccc1-c1ccc(-c2cccnc2)cc1)C(=O)[*:2])[*:1]; NMehhhLys(Me) = CN([C@@H](CCCCCCCN(C)[*:3])C(=O)[*:2])[*:1]; cBuCO(3,3-F2-1-CF3) = O=C(C1(C(F)(F)F)CC(F)(F)C1)*; Pro(trans-4-F) = O=C(O)[C@@H]1C[C@@H](F)CN1; Gly(cPr) = N[C@H](C(=O)O)C1CC1; X65 = CC1(C(=O)*)CC(F)(F)C1
Key:
WI-38 cells = test: MTT proliferation assay, WI-38; format: cell-based; settings: 3 days compound exposure, 1:3 serial dilution starting at 10 μM;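 note: Eight- or ten-point dilution series, with exposure length chosen to span about three to four cell doublings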
CyclinA2/CDK2 = target: T1, CyclinA2/CDK2 (Homo sapiens, UniProt P20248); test: Fluorescence Polarization (FP) competitive binding assay, Cyclin A2/Cdk2; settings: 8 nM Cyclin A2/Cdk2, 2 nM FAM probe; average of 2-3 independent experiments; read-out: Cyclin A FP IC50;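 note: plates equilibrated two hours at room temperature before polarization reading, IC50 fitted from eight-concentration compound titration curves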
T1 construct: purchased CRELUX Protein Services

CyclinB1/CDK1 = target: T2, CyclinB1/CDK1 (Homo sapiens, UniProt P14635); test: Fluorescence Polarization (FP) competitive binding assay, Cyclin B1/Cdk1; settings: 10 nM Cyclin B1/Cdk1, 2 nM FAM probe; average of 2-3 independent experiments; read-out: Cyclin B FP IC50;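 note: fluorescence polarization read after equilibration at room temperature, with IC50 taken from serially diluted dose-response curves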
T2 construct: purchased Eurofins, discovery 14-450

CyclinE1/CDK2 = target: T3, CyclinE1/CDK2 (Homo sapiens, UniProt P24864); test: Fluorescence Polarization (FP) competitive binding assay, Cyclin E1/Cdk2; settings: 10 nM Cyclin E1/Cdk2, 2 nM FAM probe; average of 2-3 independent experiments; read-out: Cyclin E FP IC50;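 note: readings taken after two-hour equilibration at room temperature in HEPES buffer with NaCl, DTT, NP-40 and BSA, IC50 fitted from eight-concentration serial dilution series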
T3 construct: purchased Eurofins, discovery 14-475

NCI-H1048 cells = test: MTT proliferation assay, NCI-H1048; format: cell-based; settings: 5 days compound exposure, 1:3 serial dilution starting at 10 μM;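 note: Dose-response in 96-well plates over 8 or 10 concentration points, with exposure spanning 3-4 cell doublings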
OVCAR3 cells = test: MTT proliferation assay, OVCAR3; format: cell-based; settings: 5 days compound exposure, 1:3 serial dilution starting at 10 μM;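 note: compound given as an 8- or 10-point series, one day after plating, with exposure covering roughly 3-4 cell doublings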

Row | SMILES | GI50 (WI-38 cells) | IC50 (CyclinA2/CDK2) | IC50 (CyclinB1/CDK1) | IC50 (CyclinE1/CDK2) | GI50 (NCI-H1048 cells) | GI50 (OVCAR3 cells)
1 | CC(C)C[C@@H]1NC(=O)[C@@H](N(C)C(=O)[C@@H](NC(=O)[C@@H]2C[C@@H](F)CN2C(=O)C2(C(F)(F)F)CC(F)(F)C2)C2CC2)CCCCCCCN(C)C(=O)[C@H](Cc2cc(Cl)ccc2-c2ccc(CN3CCOCC3)cc2)N(C)C1=O [Example 359, (2S,4R)—N—((S)-2-(((3S,6S,9S)-3-((4-chloro-4′-(morpholinomethyl)-[1,1′-biphenyl]-2-yl)methyl)-6-isobutyl-1,4-dimethyl-2,5,8-trioxo-1,4,7-triazacyclohexadecan-9-yl)(methyl)amino)-1-cyclopropyl-2-oxoethyl)-1-(3,3-difluoro-1-(trifluoromethyl)cyclobutane-1-carbonyl)-4-fluoropyrrolidine-2-carboxamide] ({cBuCO(3,3-F2-1-CF3)}-[Pro(trans-4-F)][Gly(cPr)][NMehhhLys(Me)]L[X108]; lactam 3-C) | 4560 nM | 20 nM | 20 nM | 680 nM | 10 nM | 10 nM
2 | CC(C)C[C@@H]1NC(=O)[C@@H](N(C)C(=O)[C@@H](NC(=O)[C@@H]2C[C@@H](F)CN2C(=O)C2(C(F)(F)F)CC(F)(F)C2)C2CC2)CCCCCCCN(C)C(=O)[C@H](Cc2cc(Cl)ccc2-c2ccc(CN3CCN(C)CC3)cc2)N(C)C1=O [Example 360] ({cBuCO(3,3-F2-1-CF3)}-[Pro(trans-4-F)][Gly(cPr)][NMehhhLys(Me)]L[X40]; lactam 3-C) | 2720 nM | 20 nM | 20 nM | 860 nM | 10 nM | 10 nM
3 | COc1cc(N2CCOCC2)ccc1-c1ccc(Cl)cc1C[C@H]1C(=O)N(C)CCCCCCC[C@H](N(C)C(=O)[C@@H](NC(=O)[C@@H]2C[C@@H](F)CN2C(=O)C2(C(F)(F)F)CC(F)(F)C2)C2CC2)C(=O)N[C@@H](CC(C)C)C(=O)N1C [Example 361] ({cBuCO(3,3-F2-1-CF3)}-[Pro(trans-4-F)][Gly(cPr)][NMehhhLys(Me)]L[X81]; lactam 3-C) | 14300 nM | 50 nM | 20 nM | 1840 nM | 30 nM | 10 nM
4 | CC(C)C[C@@H]1NC(=O)[C@@H](N(C)C(=O)[C@@H](NC(=O)[C@@H]2C[C@@H](F)CN2C(=O)C2(C(F)(F)F)CC(F)(F)C2)C2CC2)CCCCCCCN(C)C(=O)[C@H](Cc2cc(Cl)ccc2-c2ccc(N3C[C@H]4CC[C@@H](C3)N4C)cc2)N(C)C1=O [Example 362] ({cBuCO(3,3-F2-1-CF3)}-[Pro(trans-4-F)][Gly(cPr)][NMehhhLys(Me)]L[X53]; lactam 3-C) | 1280 nM | 20 nM | 20 nM | 600 nM | 10 nM | 10 nM
5 | CC(C)C[C@@H]1NC(=O)[C@@H](N(C)C(=O)[C@@H](NC(=O)[C@@H]2C[C@@H](F)CN2C(=O)C2(C(F)(F)F)CC(F)(F)C2)C2CC2)CCCCCCCN(C)C(=O)[C@H](Cc2cc(Cl)ccc2-c2ccc(N3C[C@H]4COC[C@H]4C3)cc2)N(C)C1=O [Example 363] ({cBuCO(3,3-F2-1-CF3)}-[Pro(trans-4-F)][Gly(cPr)][NMehhhLys(Me)]L[X38]; lactam 3-C) | 1430 nM | 20 nM | 20 nM | 470 nM | 10 nM | 10 nM
6 | CC(C)C[C@@H]1NC(=O)[C@@H](N(C)C(=O)[C@@H](NC(=O)[C@@H]2C[C@@H](F)CN2C(=O)C2(C(F)(F)F)CC(F)(F)C2)C2CC2)CCCCCCCN(C)C(=O)[C@H](Cc2cc(Cl)ccc2-c2ccc(N3CCN4CCOC[C@H]4C3)cc2)N(C)C1=O [Example 364] ({cBuCO(3,3-F2-1-CF3)}-[Pro(trans-4-F)][Gly(cPr)][NMehhhLys(Me)]L[X21]; lactam 3-C) | 3250 nM | 20 nM | 20 nM | 430 nM | 10 nM | 10 nM
7 | CC(C)C[C@@H]1NC(=O)[C@@H](N(C)C(=O)[C@@H](NC(=O)[C@@H]2C[C@@H](F)CN2C(=O)C2(C)CC(F)(F)C2)C2CC2)CCCCCCCN(C)C(=O)[C@H](Cc2cc(Cl)ccc2-c2ccc(N3CCOCC3)cc2)N(C)C1=O [Example 365] (X65-[Pro(trans-4-F)][Gly(cPr)][NMehhhLys(Me)]L[NMePhe(2-(4-MorPh),5-Cl)]; lactam 3-C) | 3180 nM | 20 nM | 20 nM | 1170 nM | 10 nM | 10 nM
8 | COc1cc(-c2ccc(Cl)cc2C[C@H]2C(=O)N(C)CCCCCCC[C@H](N(C)C(=O)[C@@H](NC(=O)[C@@H]3C[C@@H](F)CN3C(=O)C3(C(F)(F)F)CC(F)(F)C3)C3CC3)C(=O)N[C@@H](CC(C)C)C(=O)N2C)ccc1N1CCOCC1 [Example 367] ({cBuCO(3,3-F2-1-CF3)}-[Pro(trans-4-F)][Gly(cPr)][NMehhhLys(Me)]L[X91]; lactam 3-C) | 14700 nM | 20 nM | 20 nM | 1100 nM | 20 nM | 10 nM
9 | CC(C)C[C@@H]1NC(=O)[C@@H](N(C)C(=O)[C@@H](NC(=O)[C@@H]2C[C@@H](F)CN2C(=O)C2(C(F)(F)F)CC(F)(F)C2)C2CC2)CCCCCCCN(C)C(=O)[C@H](Cc2cc(Cl)ccc2-c2ccc(N3CCN(Cc4ccccn4)CC3)cc2)N(C)C1=O [Example 368] ({cBuCO(3,3-F2-1-CF3)}-[Pro(trans-4-F)][Gly(cPr)][NMehhhLys(Me)]L[X106]; lactam 3-C) | 15200 nM | 20 nM | 20 nM | 480 nM | 10 nM | 10 nM
10 | CC(C)C[C@@H]1NC(=O)[C@@H](N(C)C(=O)[C@@H](NC(=O)[C@@H]2C[C@@H](F)CN2C(=O)C2(C(F)(F)F)CC(F)(F)C2)C2CC2)CCCCCCCN(C)C(=O)[C@H](Cc2cc(Cl)ccc2-c2ccc([C@]34CCOC[C@H]3C4)nc2)N(C)C1=O [Example 369] ({cBuCO(3,3-F2-1-CF3)}-[Pro(trans-4-F)][Gly(cPr)][NMehhhLys(Me)]L[X85]; lactam 3-C) | 4540 nM | 20 nM | 20 nM | 1490 nM | 20 nM | 20 nM
11 | CC(C)C[C@@H]1NC(=O)[C@@H](N(C)C(=O)[C@@H](NC(=O)[C@@H]2C[C@@H](F)CN2C(=O)C2(C(F)(F)F)CC(F)(F)C2)C2CC2)CCCCCCCN(C)C(=O)[C@H](Cc2cc(Cl)ccc2-c2ccc(C3(F)CCN(C)CC3)cc2)N(C)C1=O [Example 370] ({cBuCO(3,3-F2-1-CF3)}-[Pro(trans-4-F)][Gly(cPr)][NMehhhLys(Me)]L[X45]; lactam 3-C) | 1210 nM | 20 nM | 20 nM | 780 nM | 20 nM | 20 nM
12 | CC(C)C[C@@H]1NC(=O)[C@@H](N(C)C(=O)[C@@H](NC(=O)[C@@H]2C[C@@H](F)CN2C(=O)C2(C(F)(F)F)CC(F)(F)C2)C2CC2)CCCCCCCN(C)C(=O)[C@H](Cc2cc(Cl)ccc2-c2ccc(OC3CCN(C)CC3)cc2)N(C)C1=O [Example 371] ({cBuCO(3,3-F2-1-CF3)}-[Pro(trans-4-F)][Gly(cPr)][NMehhhLys(Me)]L[X103]; lactam 3-C) | 1440 nM | 20 nM | 20 nM | 920 nM | 10 nM | 10 nM
13 | CC(C)C[C@@H]1NC(=O)[C@@H](N(C)C(=O)[C@@H](NC(=O)[C@@H]2C[C@@H](F)CN2C(=O)C2(C(F)(F)F)CC(F)(F)C2)C2CC2)CCCCCCCN(C)C(=O)[C@H](Cc2cc(Cl)ccc2-c2ccc(N3CCN(Cc4cnn(C)c4)CC3)cc2)N(C)C1=O [Example 372] ({cBuCO(3,3-F2-1-CF3)}-[Pro(trans-4-F)][Gly(cPr)][NMehhhLys(Me)]L[X73]; lactam 3-C) | 2840 nM | 20 nM | 20 nM | 430 nM | 10 nM | 10 nM
14 | Cc1cc(-c2ccc(Cl)cc2C[C@H]2C(=O)N(C)CCCCCCC[C@H](N(C)C(=O)[C@@H](NC(=O)[C@@H]3C[C@@H](F)CN3C(=O)C3(C(F)(F)F)CC(F)(F)C3)C3CC3)C(=O)N[C@@H](CC(C)C)C(=O)N2C)ccc1N1CCN(C)CC1 [Example 374] ({cBuCO(3,3-F2-1-CF3)}-[Pro(trans-4-F)][Gly(cPr)][NMehhhLys(Me)]L[X36]; lactam 3-C) | 2220 nM | 20 nM | 20 nM | 870 nM | 10 nM | 10 nM
15 | CC(C)C[C@@H]1NC(=O)[C@@H](N(C)C(=O)[C@@H](NC(=O)[C@@H]2C[C@@H](F)CN2C(=O)C2(C(F)(F)F)CC(F)(F)C2)C2CC2)CCCCCCCN(C)C(=O)[C@H](Cc2cc(Cl)ccc2-c2ccc(-c3cccnc3)cc2)N(C)C1=O [Example 375] ({cBuCO(3,3-F2-1-CF3)}-[Pro(trans-4-F)][Gly(cPr)][NMehhhLys(Me)]L[X6]; lactam 3-C) | 16800 nM | 20 nM | 20 nM | 1730 nM | 10 nM | 20 nM
16 | CC(C)C[C@@H]1NC(=O)[C@@H](N(C)C(=O)[C@@H](NC(=O)[C@@H]2C[C@@H](F)CN2C(=O)C2(C(F)(F)F)CC(F)(F)C2)C2CC2)CCCCCCCN(C)C(=O)[C@H](Cc2cc(Cl)ccc2C2=CCC(N3CCN(C)CC3)CC2)N(C)C1=O (stereo partly drawn) [Example 376] ({cBuCO(3,3-F2-1-CF3)}-[Pro(trans-4-F)][Gly(cPr)][NMehhhLys(Me)]L[X8]; lactam 3-C) | 3450 nM | 20 nM | 20 nM | 1330 nM | 10 nM | 10 nM
